Test results reported in patent publication US20260014180A1, “BIOACTIVES AND THEIR USES” (AREPA IP LIMITED, priority 2022, published 2026).
pIC50: −log10 of the molar value.

Assays:
MAO-B in platelets = molecular target: T1, MAO-B in platelets (Homo sapiens, UniProt P27338); settings: 100 mg dose, cited from earlier work
T1 construct: host or cells: platelets
T1 sequence (P27338 1-520): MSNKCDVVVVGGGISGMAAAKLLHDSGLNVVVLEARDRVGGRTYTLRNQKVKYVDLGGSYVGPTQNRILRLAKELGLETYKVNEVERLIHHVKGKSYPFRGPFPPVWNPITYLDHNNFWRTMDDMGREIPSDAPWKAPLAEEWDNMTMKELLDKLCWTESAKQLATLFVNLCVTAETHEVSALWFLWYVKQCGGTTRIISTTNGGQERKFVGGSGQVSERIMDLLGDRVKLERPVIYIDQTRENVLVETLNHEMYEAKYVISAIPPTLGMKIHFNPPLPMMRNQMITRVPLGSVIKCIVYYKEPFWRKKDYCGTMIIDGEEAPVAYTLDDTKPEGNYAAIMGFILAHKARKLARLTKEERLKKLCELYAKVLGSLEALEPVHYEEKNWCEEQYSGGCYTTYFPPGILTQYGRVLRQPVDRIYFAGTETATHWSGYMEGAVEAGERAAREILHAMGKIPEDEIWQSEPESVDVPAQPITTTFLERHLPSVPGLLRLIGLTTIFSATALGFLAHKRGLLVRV

MAO-B = molecular target: T2, MAO-B (Sus scrofa, UniProt Q6PLK3); assay: S9 liver fraction kynuramine/4HQ LCMS assay, dilution series (Examples 5 and 6); assay type: biochemical; settings: read-out: 50% inhibition concentration (equivalent); porcine S9 fraction, kynuramine, 1 hr 37 C
T2 sequence (Q6PLK3 2-520): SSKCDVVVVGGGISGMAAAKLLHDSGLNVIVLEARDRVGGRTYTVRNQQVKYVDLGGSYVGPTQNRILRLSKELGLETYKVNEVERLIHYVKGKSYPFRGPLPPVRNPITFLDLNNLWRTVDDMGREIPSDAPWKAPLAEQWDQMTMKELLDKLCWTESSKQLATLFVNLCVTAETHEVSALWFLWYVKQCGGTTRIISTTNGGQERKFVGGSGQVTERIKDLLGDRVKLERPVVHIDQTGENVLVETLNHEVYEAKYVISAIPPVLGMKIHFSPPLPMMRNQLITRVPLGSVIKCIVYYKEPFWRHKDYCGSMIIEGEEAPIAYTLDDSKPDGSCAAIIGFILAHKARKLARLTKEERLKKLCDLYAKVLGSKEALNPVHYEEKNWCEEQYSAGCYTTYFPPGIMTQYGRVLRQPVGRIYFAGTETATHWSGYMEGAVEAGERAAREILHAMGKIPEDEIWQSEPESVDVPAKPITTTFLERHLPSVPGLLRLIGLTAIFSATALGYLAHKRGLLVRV
Protocol: We used a porcine S9 liver microsome fraction as the source of the MAO-A and MAO-B enzymes.
The S9 porcine fraction was mixed with a specific MAO substrate (kynuramine) and mixed with the test sample and buffer. After 1 hr at 37° C. the reaction was halted by cooling and addition of 2N NaOH and acetonitrile. The centrifuged sample was then analysed using LCMS and the level of 4-quinolol (4HQ) product measured.
The S9 liver microsome fraction containing the crude enzyme mix was from a frozen bulk sample derived from porcine liver.
Samples were prepared in a 6-well plate (deep well format with 1.1 ml strip tubes). The assay was performed by diluting the crude S9 fraction with buffer (PBS, PH 7.4, diluted 1 in 5, 150 μl) and adding the test sample dissolved in buffer (75 ul). An aliquot of kynuramine was added (10 μl of 1 mg/ml) and the plate was placed in a 37 C water bath for 1 hr. The plate was cooled in ice water before addition of 20 μl 2N NaOH followed by 250 μl acetonitrile. The individual strip tubes were centrifuged, and samples taken from each for LCMS analysis.
The LCMS analysis was performed using a Cyano HPLC column eluted with 0.1% formic in water and acetonitrile. The LC run was isocratic mode (40% Acetonitrile) and the relative levels of 4 hydroxy quinoline (4HQ) and kynuramine determined from peak areas. […] Kynuramine is converted to 4HQ by the MAO-B enzyme. […]

[1] = human, in vivo
Protocol: Subjective feeling questionnaires and venous blood samples were collected at various timepoints over 8 h. […] Participants and trial coordinators were masked as to which intervention drink participants consumed. Before each trial day, participants excluded foods and supplements high in polyphenol compounds from their diet, for 24 h. They fasted for at least 10 h before consuming an Almond with Vanilla One Square Meal Bar® (Cookie Time Ltd) for breakfast, 2 h before the start of the trial. Participants arrived at the PFR Clinical Facility, where they were made comfortable. After 5 min at rest, they completed visual analogue scale (VAS) subjective feelings questionnaires and then donated a venous blood sample. After which, they were served their intervention beverage and were instructed to consume it as quickly as possible. […]
The plasma samples (350 μL) were spiked with malvidin 3-O-galactoside and further acidified with phosphoric acid prior to clean up on a SOLAμ™ Solid Phase Extraction plate. […] Quantifications of individual and total anthocyanins were performed using the internal standard ratio method using MultiQuant software, and all results are reported as cyanidin 3-O-glucoside equivalents. Quantification of sarmentosin was performed using an external reference standard supplied by Stephen Bloor (Callaghan Institute).

[2] = in vivo; cited from earlier work
MAO = settings: cited from earlier work
MAO-A = molecular target: T3, MAO-A (Homo sapiens, UniProt P21397); settings: in vivo; cited from earlier work
T3 construct: purchased Sigma-Aldrich MAK295/296
T3 sequence (P21397 1-527): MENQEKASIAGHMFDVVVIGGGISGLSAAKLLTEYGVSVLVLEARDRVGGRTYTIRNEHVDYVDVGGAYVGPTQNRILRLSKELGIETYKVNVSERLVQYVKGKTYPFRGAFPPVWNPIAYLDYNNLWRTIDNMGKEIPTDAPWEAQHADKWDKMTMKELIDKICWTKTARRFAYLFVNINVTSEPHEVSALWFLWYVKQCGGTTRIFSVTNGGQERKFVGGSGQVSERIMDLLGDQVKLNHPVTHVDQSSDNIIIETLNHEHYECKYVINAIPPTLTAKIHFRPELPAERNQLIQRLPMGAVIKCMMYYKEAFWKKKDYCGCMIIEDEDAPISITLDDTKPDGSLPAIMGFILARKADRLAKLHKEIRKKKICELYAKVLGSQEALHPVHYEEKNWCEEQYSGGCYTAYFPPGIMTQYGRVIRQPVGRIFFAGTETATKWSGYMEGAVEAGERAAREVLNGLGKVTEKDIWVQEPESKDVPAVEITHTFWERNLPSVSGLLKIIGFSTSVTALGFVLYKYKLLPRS

SMILES: NCCNC(=O)c1ccc(Cl)cn1 [lazabemide]
- inhibition of MAO-B in platelets (MAO-B in platelets; 30 min post dose): > 90%
- time at which maximal inhibition subsides (MAO-B in platelets; post dose): 16 h
- time of full restoration of enzyme activity (MAO-B in platelets; post dose): 48 h

SMILES: N#C/C(=C\CO[C@@H]1O[C@H](CO)[C@@H](O)[C@H](O)[C@H]1O)CO [sarmentosin, 4-(beta-D-glucopyranosyloxy)-2-(hydroxymethyl-2-butenenitrile)]
- pIC50 (MAO-B): ~5.84
- time of peak concentrations of sarmentosin in plasma [1]: 120 min

SMILES: O=C(NCCN1CCOCC1)c1ccc(Cl)cc1 [Moclobemide]
- elimination half-life [2]: 1 to 3 h
- time to reach peak (plasma) concentrations [2]: approximately 1 hours

SMILES: O=c1c(O)c(-c2ccc(O)c(O)c2)oc2cc(O)cc(O)c12 [quercetin]
- MAO inhibitory activity by HPLC method (MAO): not active

SMILES: Cc1cccc(N2CC(CO)OC2=O)c1 (stereo not drawn) [toloxatone]
- duration of MAO-A inhibition (MAO-A): only six hours
